Here are results for one substance from US5578496A, “Detection of autoantibodies associated with the disease myasthenia gravis” (Board of Regents, Baylor College of Medicine, priority 1994, dated 1996).

*1 amine or outer side, *2 acyl side, *3 side chain or, on linkers, in order; H or OH if unused. Bridges are numbered along the chain shown (N, C = ends). Where no end group is shown, it is not given here. mPEG = monomethoxypolyethylene glycol; Suc = O=C(CCC(=O)[*:2])[*:1]

Experiment [1] has as its system experimental autoimmune myasthenia gravis (EAMG). The experiment is described as follows: Electromyography (repetitive nerve stimulation) for electrophysiological EAMG after immunization with Torpedo AChR. Format: in vivo, C57/BL6 mice. As to the method: Six weeks old C57/BL6 mice were purchased from Charles River Breeding Laboratories (Wilmington, Mass.). Preimmune sera were obtained from the mice for use as controls in subsequent antibody binding assays. […] Then, on day 0, the mice were immunized subcutaneously in one hind footpad and intramuscularly in the same side shoulder with 20 μg of Torpedo AChR in 100 μl emulsion containing equal volumes of complete Freund's adjuvant and PBS. Thirty days later, the mice were immunized with a similar dose of the receptor in the opposite footpad and shoulder. On the 37th day, test bleeds were obtained from the mice for determination of the antibody titers. Electrophysiological studies were performed on the 38th and 39th days. Finally, the mice were sacrificed on the 40th day and lymph node cells were obtained for T cell studies. To document the electrophysiological evidence of EAMG, amplitudes of serial muscle action potentials were measured by electromyography (EMG) during the repetitive stimulation of the nerve in immunized mice, using the Mystro EMG system (TECA Corporation). A pair of wire electrodes were surgically implanted, encircling the sciatic nerve, two days before EMG. The nerve was stimulated through the implanted electrodes by 3 Hz trains of supramaximal electric current with a duration of 200 microseconds. The corresponding muscle action potentials were recorded with an electrode subcutaneously inserted over the gastrocnemius muscle. A reference electrode was placed at the ankle. Ether inhalation was used during the surgical and recording procedures. […] Students' t-test was used to analyze the differences of amplitude changes between the two groups. A typical myasthenic response of a greater than 10% decrement was considered to constitute an electrophysiological evidence of EAMG. The frequency of electrophysiological EAMG was calculated in each group and analyzed by chi-square test.

Experiment [2] relates to peptide α125-148. The experiment is described as follows: Radioimmunoassay of anti-AChR antisera from pretreated mice: antibody binding to peptide α125-148. Format: in vivo, C57/BL6 mice. As to the method:
(§1) Six weeks old C57/BL6 mice were purchased from Charles River Breeding Laboratories (Wilmington, Mass.). Preimmune sera were obtained from the mice for use as controls in subsequent antibody binding assays. After 2-weeks rest, the mice were divided into three groups which received, at eleven, seven and three days before immunization with AChR, an intraperitoneal injection (5 μg in 25 μl of PBS [0.15M NaCl in 0.01M sodium phosphate buffer, pH 7.2]) of either the mPEG-(α125-148) conjugate (Group 1), mPEG-nonsense peptide conjugate (Group 2) or unaltered free peptide α125-148 (Group 3) (FIG. 5). Then, on day 0, the mice were immunized subcutaneously in one hind footpad and intramuscularly in the same side shoulder with 20 μg of Torpedo AChR in 100 μl emulsion containing equal volumes of complete Freund's adjuvant and PBS. Thirty days later, the mice were immunized with a similar dose of the receptor in the opposite footpad and shoulder. On the 37th day, test bleeds were obtained from the mice for determination of the antibody titers. Electrophysiological studies were performed on the 38th and 39th days. Finally, the mice were sacrificed on the 40th day and lymph node cells were obtained for T cell studies.
One mg of the synthetic peptide was dissolved in 50 μl dimethylformamide and then diluted with PBS to 25 μg/ml. A solution of Torpedo AChR in PBS was prepared to contain 2.5 μg/ml. Aliquots (50 μl/well) of the peptide or AChR solutions were added to a 96-well microtiter plate (Falcon Micro Test III flexible assay plate, Becton Dickinson, Oxcard, Calif.) and the plates were incubated at room temperature overnight. After washing 3 times with PBS, the plates were blocked with 0.25% bovine serum albumin (BSA [bovine serum albumin]) in PBS (50 μl/well) at 37° C. for 90 minutes. The plates were washed again 5 times with PBS and to each well was added 50 μl of the serum from AChR-immunized mice, pre-diluted with PBS containing 0.10% BSA, and the plates were covered and allowed to stand at room temperature overnight. After 5 washes with PBS, 50 μl of rabbit IgG antibodies (2.5 μg/ml) against mouse IgG and IgM (Accurate Chemical Scientific Corporation, Westbury, N.Y.) was added to each well and the plates were incubated at 37° C. for 3 hours. The plates were then washed 5 times with PBS and ^125 I-labeled protein A (2×10^5cpm in 50 μl of PBS-0.1% BSA) was added to each well. The plates were incubated for 3 hours at room temperature, after which they were washed and the wells were cut out and counted for bound radioactivity. Pre-immune serum samples, obtained from the mice prior to any experimental treatments, were used as controls to correct for non-specific binding.

Experiment [3] relates to whole Torpedo AChR. The experiment is described as follows: Radioimmunoassay of anti-AChR antisera from pretreated mice: antibody binding to whole AChR. In kind it is in vivo, C57/BL6 mice. The conditions noted are these: Group 1 compared to control groups; P>0.5. As to the method:
as §1, with “Finally, the mice were sacrificed on the 40th day and lymph node cells were obtained for T cell studies.” left out
(§2) One mg of the synthetic peptide was dissolved in 50 μl dimethylformamide and then diluted with PBS to 25 μg/ml. […] The plates were incubated for 3 hours at room temperature, after which they were washed and the wells were cut out and counted for bound radioactivity. […]

In experiment [4] the test system is peptide α45-60. The experiment is described as follows: Radioimmunoassay of anti-AChR antisera from pretreated mice: antibody binding to peptide α45-60. Format: in vivo, C57/BL6 mice. The conditions noted are these: Group 1 compared to control groups; P>0.1-0.5. As to the method: as §1, with “Finally, the mice were sacrificed on the 40th day and lymph node cells were obtained for T cell studies.” left out
as §2

The test system of experiment [5] is peptide α182-198. The experiment is described as follows: Radioimmunoassay of anti-AChR antisera from pretreated mice: antibody binding to peptide α182-198. In kind it is in vivo, C57/BL6 mice. The conditions noted are these: Group 1 compared to control groups; P>0.1-0.5. As for the experimental part:
as §1, with “Finally, the mice were sacrificed on the 40th day and lymph node cells were obtained for T cell studies.” left out
as §2

Experiment [6] deals with lymph node cells (LNC). The experiment is described as follows: T cell proliferation assay of lymph node cells from AChR-primed mice. Format: cell-based, C57/BL6 mice. The conditions noted are these: LNC challenged with overlapping Torpedo AChR α chain peptides, α125-148 and AChR; compared with mPEG-Nonsense peptide group. As to the method:
as §1, with “Thirty days later, the mice were immunized with a similar dose of the receptor in the opposite footpad and shoulder. On the 37th day, test bleeds were obtained from the mice for determination of the antibody titers. Electrophysiological studies were performed on the 38th and 39th days. Finally, the mice were sacrificed on the 40th day and lymph node cells were obtained for T cell studies.” left out
Lymph node cells (LNC) were harvested from the AChR-primed mice of each group ten or eleven days after the last AChR immunization. […] The number of viable cells was determined by vital staining with fluorescein diacetage. […] After incubation for 3 days at 37° C. in a humidified air/CO2 (19:1) atmosphere, the cultures were pulsed (18 hr) with 1 μCi/well [^3 H]-thymidine (Research Products International, Mount Prospect, Ill.) and then harvested on to glass microfiber filters (Whatman, Clinton, N.J.) for counting of radioactivity by liquid scintillation.

The mark [7] stands for this setting: 5 μg i.p. at 11, 7 and 3 days before immunization with Torpedo AChR, EMG on days 38-39.

For the substance “mPEG-(α125-148): monomethoxypolyethylene glycol coupled via succinyl to the N-terminal α-NH2 of Torpedo AChR peptide α125-148 (Group 1) ({mPEG-Suc}-KSYCEIIVTHFPFDQQNCTMKLGI; disulfide 4-18 (inferred); UniProt P02710 149-172, looked up, fragment)”, in experiment [1] (setting [7]), the “mean amplitude change of muscle action potentials” value is -5.4% and the “mice showing a decremental response greater than 10%” value was 20%. In experiment [1] (prior administration, then immunization with AChR), the “effect on development of electrophysiological EAMG” value is “suppresses development of electrophysiological EAMG but the suppression was incomplete”. In addition, the “antibody binding to peptide α125-148, mean net cpm ± standard deviation” value in experiment [2] (anti-AChR antisera of individual mice, day 37 bleeds) turned out to be 1414±1801 cpm. In experiment [2] (pooled serum of each group, various dilutions), the “antibody binding to peptide α125-148, pooled antisera in serial dilutions” value is recorded as “consistently lower amounts of antibody binding”. Also, in experiment [2] (pretreatment prior to immunization with Torpedo AChR), the “antibodies bound to peptide α125-148 in anti-AChR antisera” value is given as “significantly decreased”. The “antibodies against whole receptor” value in experiment [3] is reported as “no significant suppression”. For the same substance, in experiment [4], the “antibodies against peptide α45-60” value is on record as “no significant suppression”. The “antibodies against peptide α182-198” value in experiment [5] is “no significant suppression”. Further, the “T cell proliferation profiles” value in experiment [6] is “did not show meaningful differences”.
